This assay concerns MV-4-11 cells. Nature of the assay: Gene expression microarray analysis (Affymetrix PrimeView) and GSEA. More on the design: RFU PODN (11730768_x_at) / Fold change /veh PODN (11730768_x_at) / RFU LINC00158 (11744669_a_at) / Fold change /veh LINC00158 (11744669_a_at) / RFU DUSP10 (11751237_a_at) / Fold change /veh DUSP10 (11751237_a_at) / RFU ID3 (11757404_x_at) / Fold change /veh ID3 (11757404_x_at) / RFU PLEKHG5 (11737974_s_at) / Fold change /veh PLEKHG5 (11737974_s_at) / RFU LRRC4B (11730491_at) / Fold change /veh LRRC4B (11730491_at) / RFU GIMAP4 (11747438_a_at) / Fold change /veh GIMAP4 (11747438_a_at) / RFU KRT8 (11758183_x_at) / Fold change /veh KRT8 (11758183_x_at) / RFU CNN1 (11734310_a_at) / Fold change /veh CNN1 (11734310_a_at) / RFU VPS37D (11726825_at) / Fold change /veh VPS37D (11726825_at) / RFU C10orf10 (11716522_x_at) / Fold change /veh C10orf10 (11716522_x_at) / RFU KIR2DL2 /// KIR2DL4 /// KIR2DL5A /// KIR2DL5B /// KIR2DS1 /// KIR2DS2 /// KIR2DS3 /// KIR2DS4 /// KIR3DL3 /// KIR3DL3 /// KIR3DS1 (11738374_at) / Fold change /veh KIR2DL2 /// KIR2DL4 /// KIR2DL5A /// KIR2DL5B /// KIR2DS1 /// KIR2DS2 /// KIR2DS3 /// KIR2DS4 /// KIR3DL3 /// KIR3DL3 /// KIR3DS1 (11738374_at) / RFU C1QL1 (11718748_at) / Fold change /veh C1QL1 (11718748_at) / RFU TMPRSS4 (11747572_a_at) / Fold change /veh TMPRSS4 (11747572_a_at) / RFU HAMP (11756126_x_at) / Fold change /veh HAMP (11756126_x_at) / RFU RNFT2 (11725882_a_at) / Fold change /veh RNFT2 (11725882_a_at) / RFU NR4A2 (11747474_a_at) / Fold change /veh NR4A2 (11747474_a_at) / RFU ABCC12 (11746883_a_at) / Fold change /veh ABCC12 (11746883_a_at) / RFU TMEM136 (11760407_x_at) / Fold change /veh TMEM136 (11760407_x_at) / RFU CLDN22 /// WWC2 (11732394_at) / Fold change /veh CLDN22 /// WWC2 (11732394_at) / RFU HLA-DPB1 (11760878_x_at) / Fold change /veh HLA-DPB1 (11760878_x_at) / RFU SPINT1 (11716480_a_at) / Fold change /veh SPINT1 (11716480_a_at) / RFU GAP43 (11754022_s_at) / Fold change /veh GAP43 (11754022_s_at) / RFU A4GNT (11735810_at) / Fold change /veh A4GNT (11735810_at) / RFU PRB3 (11715151_x_at) / Fold change /veh PRB3 (11715151_x_at) / RFU TUBB4B (11761932_at) / Fold change /veh TUBB4B (11761932_at) / RFU CAPN14 (11732068_a_at) / Fold change /veh CAPN14 (11732068_a_at) / RFU TMCC2 (11721928_a_at) / Fold change /veh TMCC2 (11721928_a_at) / RFU IRGQ (11745062_a_at) / Fold change /veh IRGQ (11745062_a_at) / RFU FAM174B (11720279_a_at) / Fold change /veh FAM174B (11720279_a_at) / RFU TMPRSS4 (11748680_a_at) / Fold change /veh TMPRSS4 (11748680_a_at) / RFU FAM212B (11763350_a_at) / Fold change /veh FAM212B (11763350_a_at) / RFU PLEKHG5 (11743358_a_at) / Fold change /veh PLEKHG5 (11743358_a_at) / RFU ZSCAN30 (11745921_a_at) / Fold change /veh ZSCAN30 (11745921_a_at) / RFU CMKLR1 (11741424_a_at) / Fold change /veh CMKLR1 (11741424_a_at) / RFU LOC101060620 /// MAPK8IP1 (11723275_at) / Fold change /veh LOC101060620 /// MAPK8IP1 (11723275_at) / RFU SPTSSB (11747773_x_at) / Fold change /veh SPTSSB (11747773_x_at) / RFU PRSS12 (11739890_at) / Fold change /veh PRSS12 (11739890_at) / RFU BIN1 (11741810_x_at) / Fold change /veh BIN1 (11741810_x_at) / RFU WNT11 (11732464_a_at) / Fold change /veh WNT11 (11732464_a_at) / RFU C10orf10 (11716521_a_at) / Fold change /veh C10orf10 (11716521_a_at) / RFU C5orf56 (11738089_at) / Fold change /veh C5orf56 (11738089_at) / RFU CYB561 (11721691_x_at) / Fold change /veh CYB561 (11721691_x_at) / RFU ANKRD19P (11752326_a_at) / Fold change /veh ANKRD19P (11752326_a_at) / RFU OR2T12 /// OR2T33 /// OR2T8 (11738714_s_at) / Fold change /veh OR2T12 /// OR2T33 /// OR2T8 (11738714_s_at) / RFU VCAN (11748164_a_at) / Fold change /veh VCAN (11748164_a_at) / RFU JSRP1 (11732532_at) / Fold change /veh JSRP1 (11732532_at) / RFU KRTAP10-11 (11738290_x_at) / Fold change /veh KRTAP10-11 (11738290_x_at) / RFU MYO3A (11730013_a_at) / Fold change /veh MYO3A (11730013_a_at) / RFU EBF3 (11725865_a_at) / Fold change /veh EBF3 (11725865_a_at) / RFU CAMK2N1 (11719241_x_at) / Fold change /veh CAMK2N1 (11719241_x_at) / RFU C5orf56 (11738088_a_at) / Fold change /veh C5orf56 (11738088_a_at) / RFU OLFML3 (11715873_a_at) / Fold change /veh OLFML3 (11715873_a_at) / RFU LOC100653217 /// NTM (11731650_a_at) / Fold change /veh LOC100653217 /// NTM (11731650_a_at) / RFU MAPK11 (11762145_a_at) / Fold change /veh MAPK11 (11762145_a_at) / RFU FIZ1 (11724087_x_at) / Fold change /veh FIZ1 (11724087_x_at) / RFU OASL (11726364_x_at) / Fold change /veh OASL (11726364_x_at) / RFU SOX15 (11748057_x_at) / Fold change /veh SOX15 (11748057_x_at) / RFU CD79A (11719716_a_at) / Fold change /veh CD79A (11719716_a_at) / RFU HIST1H1D (11736915_at) / Fold change /veh HIST1H1D (11736915_at) / RFU CASKIN2 (11723855_a_at) / Fold change /veh CASKIN2 (11723855_a_at) / RFU LOC730098 (11760151_x_at) / Fold change /veh LOC730098 (11760151_x_at) / RFU OR4N2 (11742367_at) / Fold change /veh OR4N2 (11742367_at) / RFU PRRT2 (11749266_a_at) / Fold change /veh PRRT2 (11749266_a_at) / RFU SNX32 (11753110_a_at) / Fold change /veh SNX32 (11753110_a_at) / RFU CDHR5 (11726645_a_at) / Fold change /veh CDHR5 (11726645_a_at) / RFU RCAN1 (11760418_a_at) / Fold change /veh RCAN1 (11760418_a_at) / RFU FAM167A (11723789_a_at) / Fold change /veh FAM167A (11723789_a_at) / RFU FAM26E (11764081_at) / Fold change /veh FAM26E (11764081_at) / RFU ISYNA1 (11749810_s_at) / Fold change /veh ISYNA1 (11749810_s_at) / RFU ACY1 (11761880_at) / Fold change /veh ACY1 (11761880_at) / RFU 11764098_at / Fold change /veh 11764098_at / RFU SAMD14 (11745864_x_at) / Fold change /veh SAMD14 (11745864_x_at) / RFU NPB (11741838_a_at) / Fold change /veh NPB (11741838_a_at) / RFU TMPRSS6 (11731388_a_at) / Fold change /veh TMPRSS6 (11731388_a_at) / RFU KRTAP10-2 (11738614_at) / Fold change /veh KRTAP10-2 (11738614_at) / RFU ARHGAP8 /// PRR5-ARHGAP8 (11727945_x_at) / Fold change /veh ARHGAP8 /// PRR5-ARHGAP8 (11727945_x_at) / RFU KRTAP5-7 /// NADSYN1 (11734609_at) / Fold change /veh KRTAP5-7 /// NADSYN1 (11734609_at) / RFU RASL12 (11751679_a_at) / Fold change /veh RASL12 (11751679_a_at) / RFU CDKN2B (11736163_a_at) / Fold change /veh CDKN2B (11736163_a_at) / RFU PRF1 (11729649_at) / Fold change /veh PRF1 (11729649_at) / RFU, ZNF638 /// ZNF638-IT1 / Fold change vs veh, ZNF638 /// ZNF638-IT1 / RFU, PANK3 / Fold change vs veh, PANK3 / RFU, SH3YL1 / Fold change vs veh, SH3YL1 / RFU, ZEB2 / Fold change vs veh, ZEB2 / RFU, NRIP1 / Fold change vs veh, NRIP1 / RFU, PTTG1IP / Fold change vs veh, PTTG1IP / RFU, CAPN2 / Fold change vs veh, CAPN2 / RFU, MED14 / Fold change vs veh, MED14 / RFU, SNORA58 / Fold change vs veh, SNORA58 / RFU, C1orf63 / Fold change vs veh, C1orf63 / RFU, LRRFIP1 / Fold change vs veh, LRRFIP1 / RFU, NDUFAF7 / Fold change vs veh, NDUFAF7 / RFU, SLC12A2 / Fold change vs veh, SLC12A2 / RFU, IBTK / Fold change vs veh, IBTK / RFU, ESF1 / Fold change vs veh, ESF1 / Fold change vs veh, TMEM50B / RFU, TAOK1 / Fold change vs veh, TAOK1 / RFU, ACBD3 / Fold change vs veh, ACBD3 / RFU, TMA16 / Fold change vs veh, TMA16 / RFU, RWDD3 / Fold change vs veh, RWDD3 / RFU, BCAT1 / Fold change vs veh, BCAT1 / RFU, EDEM3 / Fold change vs veh, EDEM3 / RFU, TMEM33 / Fold change vs veh, TMEM33 / RFU, WDR75 / Fold change vs veh, WDR75 / RFU, AHCTF1 / Fold change vs veh, AHCTF1 / RFU, TFRC / Fold change vs veh, TFRC / RFU, ZDHHC17 / Fold change vs veh, ZDHHC17 / RFU, NOM1 / Fold change vs veh, NOM1 / RFU, ARL8B / Fold change vs veh, ARL8B / RFU, ZBTB11 / Fold change vs veh, ZBTB11 / RFU, TAMM41 / Fold change vs veh, TAMM41 / RFU, KIAA1704 /// LOC100996395 / Fold change vs veh, KIAA1704 /// LOC100996395 / RFU, ING1 / Fold change vs veh, ING1 / RFU, TRMT61B / Fold change vs veh, TRMT61B / RFU, FUBP3 / Fold change vs veh, FUBP3 / RFU, TP53 / Fold change vs veh, TP53 / RFU, TNKS2 / Fold change vs veh, TNKS2 / RFU, ZFP14 / Fold change vs veh, ZFP14 / RFU, ACTR2 / Fold change vs veh, ACTR2 / RFU, PPP3R1 / Fold change vs veh, PPP3R1 / RFU, PIK3R1 / Fold change vs veh, PIK3R1 / RFU, HNRNPA1 / Fold change vs veh, HNRNPA1 / RFU, RNF170 / Fold change vs veh, RNF170 / RFU, ZNF28 / Fold change vs veh, ZNF28 / RFU, RNGTT / Fold change vs veh, RNGTT / RFU, OGT / Fold change vs veh, OGT / RFU, BRD1 / Fold change vs veh, BRD1 / RFU, MARS / Fold change vs veh, MARS / RFU, ZNF655 / Fold change vs veh, ZNF655 / RFU, FAHD1 / Fold change vs veh, FAHD1 / RFU, BDP1 / Fold change vs veh, BDP1 / RFU, LRRCC1 / Fold change vs veh, LRRCC1 / RFU, ARID1A / Fold change vs veh, ARID1A / RFU, ZNF146 / Fold change vs veh, ZNF146 / RFU, ZNF330 / Fold change vs veh, ZNF330 / RFU, GPN3 / Fold change vs veh, GPN3 / RFU, C9orf123 / Fold change vs veh, C9orf123 / RFU, N4BP2L2 / Fold change vs veh, N4BP2L2 / RFU, ARFIP1 / Fold change vs veh, ARFIP1 / RFU, FAM179B / Fold change vs veh, FAM179B / RFU, BCL10 / Fold change vs veh, BCL10 / RFU, UHRF1BP1L / Fold change vs veh, UHRF1BP1L / RFU, BET1 / Fold change vs veh, BET1 / RFU, CNOT2 / Fold change vs veh, CNOT2 / RFU, ZNF268 / Fold change vs veh, ZNF268 / Fold change vs veh, ZNF507 / RFU, DGCR2 / Fold change vs veh, DGCR2 / RFU, WDSUB1 / Fold change vs veh, WDSUB1 / Fold change vs veh, HSP90B1 /// MIR3652 / RFU, ADSS / Fold change vs veh, ADSS / RFU, GK / Fold change vs veh, GK / RFU, ZNF148 / Fold change vs veh, ZNF148 / RFU, TAF9 / Fold change vs veh, TAF9 / RFU, SLC1A5 / Fold change vs veh, SLC1A5 / RFU, SLMO2 / Fold change vs veh, SLMO2 / RFU, ABCC4 / Fold change vs veh, ABCC4 / RFU, LOC101060439 /// RAP1B / Fold change vs veh, LOC101060439 /// RAP1B / RFU, RFX7 / Fold change vs veh, RFX7 / RFU, GTPBP10 / Fold change vs veh, GTPBP10 / RFU, CNEP1R1 / Fold change vs veh, CNEP1R1 / RFU, BIVM-ERCC5 /// ERCC5 / Fold change vs veh, BIVM-ERCC5 /// ERCC5 / RFU, ILF3 / Fold change vs veh, ILF3 / RFU 11762660_at / Fold change /veh 11762660_at / RFU VCAN (11757783_s_at) / Fold change /veh VCAN (11757783_s_at) / RFU DDX43 (11728927_at) / Fold change /veh DDX43 (11728927_at) / RFU KRT8 (11758188_x_at) / Fold change /veh KRT8 (11758188_x_at) / RFU NKD1 (11759106_at) / Fold change /veh NKD1 (11759106_at) / RFU SRD5A1 (11742802_a_at) / Fold change /veh SRD5A1 (11742802_a_at) / RFU TPSAB1 /// TPSB2 (11721975_s_at) / Fold change /veh TPSAB1 /// TPSB2 (11721975_s_at) / RFU GSTM3 (11746129_a_at) / Fold change /veh GSTM3 (11746129_a_at) / RFU IL23R (11737362_x_at) / Fold change /veh IL23R (11737362_x_at) / RFU TMEM51 (11727254_a_at) / Fold change /veh TMEM51 (11727254_a_at) / RFU PIWIL2 (11732686_x_at) / Fold change /veh PIWIL2 (11732686_x_at) / RFU ORM1 (11744905_x_at) / Fold change /veh ORM1 (11744905_x_at) / RFU CCDC152 (11743942_at) / Fold change /veh CCDC152 (11743942_at) / RFU ECM1 (11717891_a_at) / Fold change /veh ECM1 (11717891_a_at) / RFU IL23R (11748794_a_at) / Fold change /veh IL23R (11748794_a_at) / RFU TNFAIP8L3 (11732012_x_at) / Fold change /veh TNFAIP8L3 (11732012_x_at) / RFU MBOAT4 (11741988_at) / Fold change /veh MBOAT4 (11741988_at) / RFU 11764193_at / Fold change /veh 11764193_at / RFU TMEM53 (11763286_at) / Fold change /veh TMEM53 (11763286_at) / RFU MAGEB2 (11727129_at) / Fold change /veh MAGEB2 (11727129_at) / RFU TMEM200A (11744735_a_at) / Fold change /veh TMEM200A (11744735_a_at) / RFU CCDC152 (11751479_a_at) / Fold change /veh CCDC152 (11751479_a_at) / RFU FAM211A (11726209_a_at) / Fold change /veh FAM211A (11726209_a_at) / RFU RGS16 (11746705_a_at) / Fold change /veh RGS16 (11746705_a_at) / RFU VCAN (11755009_s_at) / Fold change /veh VCAN (11755009_s_at) / RFU RHOB (11743442_s_at) / Fold change /veh RHOB (11743442_s_at) / RFU RGS16 (11720943_a_at) / Fold change /veh RGS16 (11720943_a_at) / RFU RGS16 (11720944_at) / Fold change /veh RGS16 (11720944_at) / RFU, VPS4B / Fold change vs veh, VPS4B / RFU, CREB1 / Fold change vs veh, CREB1 / RFU, DNAJC13 / Fold change vs veh, DNAJC13 / RFU, GNAQ / Fold change vs veh, GNAQ / RFU, CDK5R1 / Fold change vs veh, CDK5R1 / RFU, ZRANB3 / Fold change vs veh, ZRANB3 / RFU, CUL4A / Fold change vs veh, CUL4A / RFU, CCNY / Fold change vs veh, CCNY / RFU, UFL1 / Fold change vs veh, UFL1 / RFU, COG3 / Fold change vs veh, COG3 / RFU, DIAPH2 / Fold change vs veh, DIAPH2 / RFU, SKA2 / Fold change vs veh, SKA2 / RFU, AFF3 / Fold change vs veh, AFF3 / RFU, LMF1 / Fold change vs veh, LMF1 / RFU, IPO11 / Fold change vs veh, IPO11 / RFU, DFFB / Fold change vs veh, DFFB / RFU, FOXP1 / Fold change vs veh, FOXP1 / RFU, CARD8 / Fold change vs veh, CARD8 / RFU, STRN3 / Fold change vs veh, STRN3 / RFU, ADK / Fold change vs veh, ADK / RFU, RASSF2 / Fold change vs veh, RASSF2 / RFU, WIPF1 / Fold change vs veh, WIPF1 / RFU, LARP1B / Fold change vs veh, LARP1B / RFU, RASA1 / Fold change vs veh, RASA1 / RFU, RB1 / Fold change vs veh, RB1 / RFU, PPFIA1 / Fold change vs veh, PPFIA1 / RFU, MAT2A / Fold change vs veh, MAT2A / RFU, CCT5 / Fold change vs veh, CCT5 / RFU, WDR92 / Fold change vs veh, WDR92 / RFU, CUX1 / Fold change vs veh, CUX1 / RFU, TTC7A / Fold change vs veh, TTC7A / RFU, TMEM135 / Fold change vs veh, TMEM135 / RFU, DEPTOR / Fold change vs veh, DEPTOR / RFU, CPM / Fold change vs veh, CPM / RFU, DNAJB6 / Fold change vs veh, DNAJB6 / RFU, CACNA2D3 / Fold change vs veh, CACNA2D3 / RFU, DTX4 / Fold change vs veh, DTX4 / RFU, TFCP2 / Fold change vs veh, TFCP2 / RFU, GMCL1 /// GMCL1P1 / Fold change vs veh, GMCL1 /// GMCL1P1 / RFU, AEBP2 / Fold change vs veh, AEBP2 / RFU, SNHG1 /// SNORD22 /// SNORD25 /// SNORD26 /// SNORD27 /// SNORD28 /// SNORD29 /// SNORD31 / Fold change vs veh, SNHG1 /// SNORD22 /// SNORD25 /// SNORD26 /// SNORD27 /// SNORD28 /// SNORD29 /// SNORD31 / Fold change (Aza/veh), C12orf56 (ProbeSet 11735607_a_at) / Fold change (ACY-1035/veh), C12orf56 (ProbeSet 11735607_a_at) / Fold change (Aza/veh), FGFR1OP (ProbeSet 11751329_s_at) / Fold change (ACY-1035/veh), FGFR1OP (ProbeSet 11751329_s_at) / Fold change (Aza/veh), VPS36 (ProbeSet 11739960_a_at) / Fold change (ACY-1035/veh), VPS36 (ProbeSet 11739960_a_at) / RFU SYPL1 (11715823_x_at) / Fold change /veh SYPL1 (11715823_x_at) / RFU IGFBP7 (11715501_s_at) / Fold change /veh IGFBP7 (11715501_s_at) / RFU REEP3 (11722064_at) / Fold change /veh REEP3 (11722064_at) / RFU IGLL1 (11728026_x_at) / Fold change /veh IGLL1 (11728026_x_at): dose or concentration left out as unconfirmed. The format is cell-based, human. The conditions noted are these: MV-4-11 cells, 48 hours.

Molecules are shown by their SMILES.

With `Nc1ccc(-c2cccs2)cc1NC(=O)c1ccc2c(c1)cc(C1CC1)n2CCN1CCOCC1` [ACY-1035], the “RFU PODN (11730768_x_at)” value is reported as 25.60 RFU.

The values above are taken from publication PMC5218480 (PLoS ONE, 2017).
